Results: patent US20230248706A1, “METHODS AND COMPOSITIONS FOR THE TREATMENT OF COVID-19 AND ASSOCIATED RESPIRATORY DISTRESS AND MULTI-ORGAN FAILURE, SEPSIS, ACUTE RESPIRATORY DISTRESS SYNDROME, AND CARDIOVASCULAR DISEASES” (priority 2020, published 2023)

What was measured:
LPS-challenged mice [1] = assay: Lung myeloperoxidase (MPO) activity after LPS challenge; assay type: in vivo, mouse
Procedure: (§1) To induce endotoxemia, mice received a single dose of LPS (0.25-2.5 mg/kg BW, Escherichia coli 055:B5, Santa Cruz, St. Dallas, Tex.) by i.p. injection. The LPS dose was dependent on the aging of the mice (3-9 mo old, 2.5 mg/kg; 19-21 mo. old, 1.0 mg/kg; 25 mo. old, 0.25 mg/kg). All mice were anesthetized with ketamine/xylazine (100/5 mg/kg BW, i.p.) prior to tissue collection. For the survival study, mice were treated with a single dose of LPS (1.5 mg/kg, i.p.) and monitored for 7 days.
Myeloperoxidase assay. Following perfusion free of blood, lung tissues were collected and homogenized in 50 mmol/L phosphate buffer. Homogenates were centrifuged at 15,000×g for 20 minutes at 4° C. The pellets were resuspended in phosphate buffer containing 0.5% hexadecyl trimethylammonium bromide and subjected to a cycle of freezing and thawing. Subsequently, the pellets were homogenized and the homogenates were centrifuged again. Absorbance was measured at 460 nm every 15 secs for 3 minutes and data expressed as ΔOD460/min/g lung tissue (26, 34).

IL-6 = assay: Quantitative RT-PCR of IL-6 expression in lung after LPS challenge; assay type: in vivo, mouse
Procedure: (§2) Molecular analysis. Total RNA was isolated using an RNeasy Mini kit including DNase I digestion (Qiagen, Valencia, Calif.). Following reverse transcription, quantitative RT-PCR analysis was performed using a sequence detection system (ABI ViiA 7 system; Life Technologies, Grand Island, N.Y.). The following primers sets were used for analysis: mouse FoxM1 primers, 5′-[…]-3′ (SEQ ID NO: 1) and 5′-[…]-3′ (SEQ ID NO: 2); mouse cyclophilin primers, 5′-[…]-3′ (SEQ ID NO: 3) and 5′-[…]-3′ (SEQ ID NO: 4). Primers for mouse Cdc25c, Ccna2, Ccnb1, Tnf, Il6, Nos2, and Icam1 were purchased from Qiagen. The mouse gene expression was normalized to cyclophilin.

[2] = tested on: human lung microvascular ECs (HLMVECs); assay: Apoptosis (TUNEL) in senescent HLMVECs treated with TNF-α/CHX; conditions: senescent HLMVECs at passage 16
Text: (§3) (D) Quantification of ROS production. (E) Representative micrographs of TUNEL staining (green) of human lung ECs.
(§4) To further understand the pathogenic role of aging-induced NOX2 in promoting inflammatory lung injury in aged mice, we cultured human lung microvascular ECs (HLMVECs) and passaged many times.

[3] = tested on: human lung microvascular ECs (HLMVECs); assay: ROS production (DCF staining) in senescent HLMVECs treated with TNF-α/CHX; conditions: senescent HLMVECs at passage 16, TNF-α and Cycloheximide (CHX) treatment
Text: as §3, §4

FoxM1 = assay: Quantitative RT-PCR of FoxM1 expression in lung after LPS challenge; assay type: in vivo, mouse
Procedure: as §2

TNF-α = assay: Quantitative RT-PCR of TNF-α expression in lung after LPS challenge; assay type: in vivo, mouse; conditions: aged mice (21 mo. old), DMOG at 12 or 24h post-LPS, 72h post-LPS
Procedure: as §2

HIF-response element = assay: High-throughput screening of Prestwick library in stable cell line containing the HIF-response element; assay type: cell-based; conditions: Prestwick Chemical Library of FDA-approved drugs (1280 compounds)
LPS-challenged mice [4] = assay: EBA extravasation assay (lung vascular permeability) after LPS challenge; assay type: in vivo, mouse; conditions: for vascular repair (EBA flux): 72h post-LPS; for vascular repair (EBA assay): 96h post-LPS
Procedure: as §1
Vascular permeability assessment. The Evans blue dye-conjugated albumin (EBA) extravasation assay was performed as previously described (26, 34). Briefly, mice were retro-orbitally injected with EBA at a dose of 20 mg/kg BW at 30 minutes prior to tissue collection. Lungs were perfused free of blood with PBS, blotted dry and weighed. Next, lung tissues were homogenized in 1 ml PBS and incubated with 2 volumes of formamide at 60° C. for 18 hours. The homogenates were then centrifuged at 10,000×g for 30 minutes. The optical density of the supernatant was determined at 620 nm and 740 nm. The extravasated EBA in lung homogenate was presented as μg of Evans blue dye per g lung tissue.

[5] = cited from earlier work
pro-inflammatory genes = assay type: in vivo, mouse; conditions: aged mice (21 mo. old), 25 mg/kg oral at 24h post-LPS (FIG. 13 legend)
Procedure: as §2

HDAC = conditions: cited from earlier work
NADase = conditions: cited from earlier work
p53 = conditions: in response to DNA damaging agents; cited from earlier work
Cdc25c, Ccna2, and Ccnb1 = assay: Quantitative RT-PCR of FoxM1 target genes essential for cell cycle progression in lung; assay type: in vivo, mouse; conditions: aged mice, treated at 24 and 48h post-LPS
Procedure: as §2

pulmonary vascular ECs = assay: In vivo BrdU labeling of lung endothelial cell proliferation; design: species or system mouse; conditions: aged mice, treated at 24 and 48h post-LPS
Procedure: Cell proliferation. At 8 h prior to tissue collection, BrdU (Sigma-Aldrich, St Louis, Mo.) was injected i.p. into mice at 50 mg/kg BW. Mouse lung cryosections were stained overnight with anti-BrdU (1:3, BD Biosciences, San Jose, Calif.) and incubated with Alexa Fluo 488-conjugated secondary antibody (1:200, Life Technologies, Grand Island, N.Y.). Lung vascular ECs were immunostained with anti-vWF (1:300, Sigma-Aldrich, St Louis, Mo.) and anti-CD31 (1:100, BD Biosciences, San Jose, Calif.) antibodies at 4° C. then the sections were incubated with Alexa Fluor 594-conjugated secondary antibodies (1:200, Life Technologies, Grand Island, N.Y.). The nuclei were counterstained with DAPI (Life Technologies, Grand Island, N.Y.). Three consecutive cryosections from each mouse lung were examined, the average number of BrdU+ nuclei was used (24, 34).

LPS-challenged mice [6] = assay: Survival after LPS challenge; assay type: in vivo, mouse; conditions: LPS 1.5 mg/kg i.p., treated at 24 and 48h post-LPS
Procedure: To induce endotoxemia, mice received a single dose of LPS (0.25-2.5 mg/kg BW, Escherichia coli 055:B5, Santa Cruz, St. Dallas, Tex.) by i.p. injection. […] All mice were anesthetized with ketamine/xylazine (100/5 mg/kg BW, i.p.) prior to tissue collection. […]

young adult mice = conditions: 1 mg/kg i.p., young adult mice (8-10 weeks old), previous study; cited from earlier work
[7] = aged mice (21.5 mos. old), LPS 2 mg/kg i.p., 120 mg/kg oral at 2 h post-LPS, 24h post-LPS
[8] = aged mice (21 mo. old), DMOG 8 mg/mouse i.p. at 12 or 24h post-LPS, 72h post-LPS
[9] = aged mice (21 mo. old), LPS 0.5 mg/kg i.p., 25 mg/kg oral at 24h post-LPS, 72h post-LPS
[10] = aged WT mice (20 months), 7 mg/kg i.p. at 1 h prior to LPS, 72h post-LPS
[11] = young adult mice (3-5 mo. old), LPS 2.5 mg/kg i.p., 0.25, 0.5, and 5 mg/kg i.p. at 4h post-LPS, 24h post-LPS

CC(=O)N[C@@H](CS)C(=O)O [NAC, N-Acetylcysteine]
MPO activity (LPS-challenged mice [1]; [7]): attenuated
expression of the proinflammatory gene 116 (IL-6; [7]): reduced to a level similar to young adult mice
TNF-α/CHX treatment-induced cell apoptosis [2]: markedly inhibited
ROS generation [3]: inhibited

COC(=O)CNC(=O)C(=O)OC [DMOG, dimethyoxalylglycine]
MPO activity (LPS-challenged mice [1]; [8]): returned to basal levels
increase of FoxM1 expression compared to either basal or non-treated mice (FoxM1; [8]): 3 fold
expression of TNF-α (TNF-α): markedly reduced
expression of IL-6 (IL-6; aged mice (21 mo. old), DMOG at 12 or 24h post-LPS, 72h post-LPS): markedly reduced

Cl.Nc1ccc(/N=N/c2ccccc2)c(N)n1 [Phenazopyridine]
HIF activation in library screen (HIF-response element): activators
vascular repair (EBA flux) (LPS-challenged mice [4]; aged mice (22 mo. old), LPS 1.5 mg/kg i.p., treated at 6h and 24h post-LPS): promote vascular repair

COCCCOc1ccnc(C[S+]([O-])c2nc3ccccc3[nH]2)c1C (centres unmarked) [Rabeprazole]
HIF activation in library screen (HIF-response element): activators
drug-induced vascular repair (EBA) in Foxm1 EC KO mice (LPS-challenged mice [4]; Foxm1 EC-specific knockout mice (3-5 mos. old), treated at 6h and 24h post-LPS, 52h post-LPS): inhibited
drug-induced vascular repair (EBA) in Hif1a KO mice (LPS-challenged mice [4]; Hif1a EC-specific knockout mice (4 mos. old), treated at 6h and 24h post-LPS, 52h post-LPS): inhibited
MPO activity (LPS-challenged mice [1]; aged mice (22 mo. old), LPS 1.5 mg/kg i.p., treated at 6h and 24h post-LPS, 72h post-LPS): returned to levels seen in basal mice
increase of FoxM1 expression compared to either basal or LPS-treated mice (FoxM1; aged mice (22 mo. old), treated at 6h and 24h post-LPS, 72h post-LPS): 3-6 fold
increase of FoxM1 expression compared to either basal or LPS-treated mice (FoxM1; young adult mice 3-5 mos. old, 18 mg/kg oral at 6h and 24h post-LPS, 56h post-LPS): 3 fold

Oc1ccc(/C=C/c2cc(O)cc(O)c2)cc1 [Resveratrol, trans-E-resveratrol]
solubility [5]: poor solubility

Cc1nc(C(=O)NCC(=O)O)c(O)c2ccc(Oc3ccccc3)cc12 [FG-4592]
vascular repair (EBA flux) (LPS-challenged mice [4]; aged mice (21 mo. old), LPS 0.5 mg/kg i.p., 25 mg/kg oral at 24h post-LPS): normalized vascular repair
MPO activity (LPS-challenged mice [1]; [9]): inhibited MPO activity
FoxM1 expression (FoxM1; [9]): induced FoxM1 expression
pro-inflammatory cytokine expression (pro-inflammatory genes): marked increase

NC(=O)C1CCCc2c1[nH]c1ccc(Cl)cc21 (centres unmarked) [Selisistat]
lung MPO activity (LPS-challenged mice [1]; [10]): returned to basal levels
FoxM1 expression (FoxM1; [10]): reactivated FoxM1 expression
IC50 (HDAC): > 100 µM
IC50 (NADase): > 100 µM
p53 acetylation (p53): Enhances

Nc1ncn([C@H]2CC(O)[C@@H](CO)O2)c(=O)n1 (stereo in doubt) [Decitabine, 5-Aza-2′-deoxycytidine]
vascular repair (EBA assay) (LPS-challenged mice [4]; aged mice (21-22 mos. old), 0.2 mg/kg i.p. at 24 h and 48h post-LPS): normalized vascular repair
lung EBA flux (LPS-challenged mice [4]; [11]): no effect
vascular repair (EBA assay) (LPS-challenged mice [4]; young adult mice (3 mos. old), 0.2 mg/kg i.p. at 24 and 48h post-LPS): didn't promote
lung MPO activity (LPS-challenged mice [1]; aged mice (21-22 mos. old), 0.2 mg/kg i.p. at 24 h and 48h post-LPS, 96h post-LPS): returned to basal levels
lung MPO activity (LPS-challenged mice [1]; [11]): no effect
inflammation resolution (MPO assay) (LPS-challenged mice [1]; young adult mice (3 mos. old), 0.2 mg/kg i.p. at 24 and 48h post-LPS, 96h post-LPS): didn't promote
FoxM1 expression (FoxM1; aged mice, treated at 24 and 48h post-LPS, 72h post-LPS, compared to vehicle-treated mice): markedly induced
expression of FoxM1 target genes essential for cell cycle progression (Cdc25c, Ccna2, and Ccnb1): markedly induced
pulmonary vascular EC proliferation (BrdU immunostaining) (pulmonary vascular ECs): drastically increased
mice survived (LPS-challenged mice [6]; aged (20-22 mos. old) WT mice, monitored for 96h): 80%
survival of aged Foxm1 KO mice (LPS-challenged mice [6]; aged Foxm1 EC-specific knockout mice): no protective effects
effect on sepsis-induced inflammatory lung injury (young adult mice): no effects
